Measurements published in patent US5710157A, “2,4-diamino-5,6-disubstituted-and 5,6,7-trisubstituted-5-deazapteridines as insecticides” (FMC Corporation, priority 1996, dated 1998).

Test system: tobacco budworm (Heliothis virescens [Fabricius])
Assay: diet test: insect growth inhibition and mortality, tobacco budworm larvae, 5-day exposure
Type: in vivo
Settings: second instar larvae
Method: The 5-deazapteridine of the present invention were incorporated into an artificial diet for evaluation of insecticidal activity against the tobacco budworm (Heliothis virescens [Fabricius]).
Stock solutions of test chemical in dimethyl sulfoxide were prepared for each rate of application. The rates of application, expressed as the negative log of the molar concentration, and the corresponding concentrations of the stock solution prepared for each rate are shown below:
One hundred microliters of each of the stock solutions was manually stirred into 50 mL of a molten (65°-70° C.) wheat germ-based artificial diet. The 50 mL of molten diet containing the test chemical was poured evenly into twenty wells in the outer four rows of a twenty-five well, five row plastic tray. Each well in the tray was about 1 cm in depth, with an opening of 3 cm by 4 cm at the lip. Molten diet containing only dimethyl sulfoxide at the levels used in the test chemical-treated diet was poured into the five wells in the third row of the tray. Each tray therefore contained one test chemical at a single rate of application, together with an untreated control.
Single second instar tobacco budworm larvae were placed in each well. The larvae were selected at a stage of growth at which they uniformly weigh about 5 mg each. Upon completion of infestation, a sheet of clear plastic was heat-sealed over the top of the tray using a common household flat iron. The trays were held at 25° C. at 60% relative humidity for five days in a growth chamber. Lighting was set at 14 hours of light and 10 hours of darkness.
After the 5-day exposure period, mortality counts were taken, and the surviving insects were weighed. From the weights of the surviving insects that fed on the treated diet as compared to those insects that fed on the untreated diet, the percent growth inhibition caused by each test chemical was determined. […] Where possible, the negative log of the concentration of the test chemical that provided 50% mortality (pLC50) was also determined.
The compounds of the present invention were tested in the diet test as insect growth inhibitors against the larvae of tobacco budworm (above).

## COc1ccc(OC)c(Cc2cnc3nc(N)nc(N)c3c2C)c1 [Compound 90, 2,4-diamino-5-methyl-6-(2,5-dimethoxyphenylmethyl)-5-deazapteridine]
Heliothis virescens, 120 h, artificial diet, linear regression, read-out: pI50: negative log of the concentration that provides 50% growth inhibition (converted)
  IC50: 1000 nM
Rate of application 4 (negative log of molar concentration in diet)
  Percent Growth Inhibition: 95%
Rate of application 5 (negative log of molar concentration in diet)
  Percent Growth Inhibition: 87%
Rate of application 6 (negative log of molar concentration in diet)
  Percent Growth Inhibition: 41%
Rate of application 7 (negative log of molar concentration in diet)
  Percent Growth Inhibition: 26%
